From paper PMC11052071, “Novel JAK Inhibitors to Reduce Graft-Versus-Host Disease after Allogeneic Hematopoietic Cell Transplantation in a Preclinical Mouse Model” (Molecules, 2024)

How the values were obtained:
[1] = Mouse PK after subcutaneous injection; format: in vivo; settings: 2 mg/kg s.c., CD-1 mice, time points up to 6 h; WU derivatives compared to BARI
[2] = tested on: phosphorylation of STAT1, STAT3, and STAT5; assay: STAT phosphorylation in primary human T cells (Western blotting); format: cell-based; settings: starvation 1 h, stimulated with 10 ng/mL IFN-α
Source text: Subsequently, we examined the ability of WU4 and WU8 to inhibit JAK signaling by measuring the levels of phosphorylation of STATs, downstream transcription factors of JAK signaling. […] This inhibitory capacity of WU4 and WU8 correlates with their IC50 values (Figure 1J) and the ability to reduce CXCR3 expression (Figure 3). We then decided to further investigate WU4 and WU8 as potent novel JAK inhibitors for the prevention of GvHD in our preclinical mouse model of allo-HCT.
Figure 4 Effect of WU4 and WU8 on the inhibition of JAK signaling in primary human T cells. STAT phosphorylation was determined as the indicator of JAK signaling. Primary human T cells were obtained from the peripheral blood of healthy donors. […] The phosphorylation of STATs was measured by Western blotting. Total […] and GAPDH served as loading controls.

[3] = tested on: GvHD; assay: Preclinical mouse model of allo-HCT (GvHD); format: in vivo, Balb/c recipient mice; settings: for % of recipient and donor BM-derived APCs in spleens / % of CD80-expressing donor-derived APCs in spleens / % of Tregs in the spleens: 20 mg/kg s.c., day 6 after allo-HCT; for % of recipient and donor BM-derived APCs in spleens: vs control
Source text: To determine the potential of WU4 and WU8 in preventing GvHD, we performed allo-HCT in which 5 × 10^6 T cell-depleted bone marrow (TCD-BM; CD45.1+) and 5 × 10^5 splenic pan T cells (CD45.2+) obtained from B6 mice were transplanted into lethally irradiated (900 cGy on day −1) Balb/c allogeneic recipient mice on day 0. […]. […] Among monocyte subsets, we only considered classical (LyG6^−CD11b^+Ly6C^high) and intermediate monocytes (LyG6^−CD11b^+Ly6C^middle) as APCs, excluding non-classical monocytes (LyG6^−CD11b^+Ly6C^low) due to their anti-inflammatory function, which downregulates antigen presentation during inflammation. […]
Figure 5 In vivo administration of WU4 and WU8 reduces GvHD by increasing % of Tregs while suppressing % of APCs and costimulatory proteins on APCs after allo-HCT. Allo-HCT was performed as follows: 5 × 10^6 TCD-BM (CD45.1+) and 5 × 10^5 splenic T cells (CD45.2+) obtained from B6 mice were transplanted on day 0 into lethally irradiated (900 cGy on day −1) Balb/c allogeneic recipient mice. TCD-BM-only group served as a no-GvHD control. […] (A,B) The mice were monitored for survival and GvHD signs. (C–F) Whole splenocytes were analyzed for % of Tregs, recipient/BM-derived APCs, and CD80-expressing APCs on day 6 after allo-HCT. LyG6^−CD11b^+Ly6C^high and LyG6^−CD11b^+Ly6C^middle served as classical and intermediate monocyte subsets. NT: neutrophils. * p < 0.05, ** p < 0.01, and *** p < 0.001. All error bars are represented as mean ± standard deviation.
Allo-HCT was performed as previously described. Briefly, BALB/c mice were used as recipients and received 9 Gy total body irradiation on day −1, then were transplanted with 5 × 10^6 T cell-depleted bone marrow (TCD-BM) cells from B6 (CD45.1+) mice along with 0.5 × 10^6 splenic T cells from B6 (CD45.2+) mice on day 0. Mouse TCD-BM and splenic T cells were prepared using an EasySep mouse CD90.2 positive selection kit II and an EasySep mouse T cell isolation kit ([…] Technologies, Cambridge, MA, USA), respectively.
GvHD clinical scores were assessed twice per week by a scoring system incorporating five clinical criteria: weight loss (diarrhea scored 1 regardless of weight change), posture (hunching), mobility, fur texture, and skin integrity, as previously described. Individual mice were scored from 0 to 2 for each criterion and were sacrificed with GvHD scores of 6 or above, following our approved animal protocol.
T cells from in vitro primary murine T cell culture, fresh peripheral blood, or whole splenocytes were analyzed according to cell surface and intracellular markers. Surface markers were directly stained with flow antibodies for 20 min at 4 °C. For intracellular staining (FOXP3 and T-bet), cells were fixed and permeabilized after surface staining using appropriate buffers (One-step intracellular nuclear protein staining protocol, eBioscience, San Diego, CA, USA) and stained with flow antibodies. The antibodies used for flow cytometric analyses for mouse cells were as follows: FOXP3, T-BET, and CD183 (eBioscience, San Diego, CA, USA); CD3, H2-Kb, H2-Kd, CD4, B220, CD11b, CD11c, Ly6C, and DEC205 (BioLegend, San Diego, CA); and CD8, CD45.2, CD80, and Ly6G (BD Pharmingen, San Jose, CA, USA). All cells were run on a ZE5 Cell Analyzer (BD Biosciences, Mountain View, CA, USA) or Attune® NxT (Thermofisher Scientific, Waltham, MA, USA) and analyzed with the FlowJo software, version 10.9.0 (FlowJo LLC., Ashland, OR, USA).

[4] = tested on: T-bet; assay: T-bet expression in activated primary murine T cells (flow cytometry); format: cell-based, B6 mice; settings: anti-CD3/CD28 activation beads, 3 days, dose-dependent
Source text: WU6 is a derivative of WU4, incorporating a trifluoromethane sulfonamide for WU6 instead of an ethyl sulfonamide for WU4. […]. […] Subsequently, we examined the effect of WU6 on the expression of CXCR3 and T-bet (the master transcription factor of Th1 and cytotoxic T cell differentiation) in primary murine T cells.
Figure 8 Effect of WU6 on the expression of CXCR3 and T-bet in vitro and GvHD in mouse model of allo-HCT. (A–D) Primary T cells were isolated from B6 and treated with WU6 at indicated doses for 3 days in the presence of anti-CD3/CD28 activation beads. After 3 days, the expression of CXCR3 (A,B) and T-bet (C,D) in the CD4 and CD8 was determined by flow cytometry. Survival rate and (E) clinical GvHD scores (F) of mice treated with WU6 after allo-HCT. (G,H) % BM-derived B cells (B220+) and T cells (CD3+) were examined in the peripheral blood on day 27 after allo-HCT. * p < 0.05, ** p < 0.01, and *** p < 0.001. All error bars are represented as mean ± standard deviation.
T cells from in vitro primary murine T cell culture, fresh peripheral blood, or whole splenocytes were analyzed according to cell surface and intracellular markers. […] All cells were run on a ZE5 Cell Analyzer (BD Biosciences, Mountain View, CA, USA) or Attune® NxT (Thermofisher Scientific, Waltham, MA, USA) and analyzed with the FlowJo software, version 10.9.0 (FlowJo LLC., Ashland, OR, USA). […]

[5] = 20 mg/kg s.c. once daily for 3 weeks from day 3, vs vehicle control
[6] = dose not given, compared to WU4
[7] = 4 mg/kg s.c. once daily for 3 weeks from day 3, vs vehicle control

Compound	plasma drug concentration (mouse PK) [1]	phosphorylation of STATs [2]	clinical GvHD scores [3, 5]	overall survival [3, 5]	% of recipient and donor BM-derived APCs in spleens [3]	% of CD80-expressing donor-derived APCs in spleens ([3]; vs vehicle control)	% of Tregs in the spleens ([3]; vs vehicle control)	T-bet expression in CD4 and CD8 T cells [4]	clinical GvHD scores [3, 6]	overall survival [3, 6]	percentage of donor-BM-derived B and T cells in the PB ([3]; dose not given, day 27 after allo-HCT, compared to WU4)	clinical GvHD scores [3, 7]	overall survival [3, 7]
CCS(=O)(=O)NC1CC2(C1)CC(CC#N)(n1cc(-c3ncnc4[nH]ccc34)cn1)C2 (centres unmarked) [WU4]	comparable PK to BARI throughout all time points	inhibit the phosphorylation of STAT1, STAT3, and STAT5	did not significantly improve GvHD	failed to provide any survival benefits	reducing the % of donor-derived CD11b+ APCs	reducing the % of donor-derived CD11b+ APCs and CD80-expressing B cells	significantly increasing the % of Tregs	–	–	–	–	–	–
N#CCC1(n2cc(-c3ncnc4[nH]ccc34)cn2)CC2(CC(NS(=O)(=O)C(F)(F)F)C2)C1 (centres unmarked) [WU6]	–	–	–	–	–	–	–	significantly downregulated	significantly less clinical GvHD scores	improved overall survival	increased percentage of donor-BM-derived B and T cells	–	–
N#CCC1(n2cc(-c3ncnc4[nH]ccc34)cn2)CCS(=O)(=O)CC1 [WU8]	significant increase in plasma drug concentration at 2 h post-dose	inhibit the phosphorylation of STAT1, STAT3, and STAT5	improved clinical GvHD scores	significantly increased overall survival	reduced the % of both the residual recipient and donor BM-derived APCs	decreased	trend towards higher frequencies of Tregs	–	–	–	–	less GvHD	mild trend towards improved survival
